For data set [1], the system named is common lambsquarters (CHEAL). As to the kind of experiment: Test 2 field trial, preemergence. More on the design: scale not given here. As to conditions: 28 DAA. The format is in vivo, Chenopodium album. The text has this: Corn seeds (hybrid ‘Pioneer 31G96’) were planted in mid spring season, 3.8 cm deep in a clay loam soil having 2% organic matter and a pH of 6.6. Plots were 6.1 m long by 3.0 m wide with rows spaced 76 cm apart. Seeds were spaced 15 cm apart within the rows. The field was managed using conventional tillage practices. […] A few of the weed species could not be evaluated at every timing. […] Results are the means of the three replicates.

Another data set relates to red deadnettle (LAMPU). As to the kind of experiment: Test 3 field trial, emerged weeds before corn planting. The format is in vivo, Lamium purpureum. As to conditions: Cpd 2 100, glyphosate 1540, paraquat 1150 g a.i./ha, alone or combined. An excerpt:
Corn seeds (hybrid ‘Pioneer 33J56’) were planted in early spring season, 3.8 cm deep in a silt loam soil having 2.4% organic matter and a pH of 6. Plots were 6.1 m long by 2.7 m wide with rows spaced 91.4 cm apart. The field was managed using no-till practices. […] Compound 2 and paraquat treatments, alone and in combination, also included a surfactant. Glyphosate, alone and with Compound 2, included ammonium sulfate in the treatment mixture. […] The effects on the weeds in the treated plots and untreated control plots were recorded 30, 42, 46 and 68 days after application. Most of the weed species could not be evaluated at every timing. Corn response was not evaluated because the growth was highly variable depending on the efficacy of the weed control treatments. […] Results are the means of the three replicates.

Data set [2] relates to Pennsylvania smartweed (POLPY). The data set can be described thus: Test 7 field trial, preemergence. The data set is classed as in vivo, Polygonum pensylvanicum. The procedure:
Plots were 7.6 m long by 3.0 m wide with rows spaced 76 cm apart. Seeds were spaced 15 cm apart within the rows. The field was managed using conventional tillage practices. […] Wild radish was evaluated 14 and 28 days after application. […] Results are the means of the three replicates.

Data set [3] has as its system smallflower buttercup (RANAB). As to the kind of experiment: Test 9 field trial, emerged weeds before corn planting. The data set is classed as in vivo, Ranunculus abortivus. As to conditions: g a.i./ha: Cpd 2 100, Glyphosate 1540, Paraquat 1150. The procedure:
Corn seeds (hybrid ‘Pioneer 34M91 RR’) were planted in mid spring season, about 3.8 cm deep in a silty clay loam soil having a pH of 6.7. Plots were 9.1 m long by 3.0 m. The field was managed using no-till practices. […] Compound 2 and paraquat treatments, alone and in combination, also included a surfactant. Glyphosate, alone and with Compound 2, included ammonium sulfate in the treatment mixture. […] The effects on the weeds in the treated plots and untreated control plots were recorded 7, 14, 23, 30 and 57 days after application. Most of the weed species could not be evaluated at every timing. Corn response was only evaluated 57 days after application. […] Results are the means of the three replicates.

Another data set concerns arrowleaf sida (SIDRH). The data set can be described thus: Test 12 field trial, preemergence. The data set is classed as in vivo, Sida rhombifolia. Set-up: scale not given here. As to conditions: Cpd 2 or Cpd 1 62 g a.i./ha, Diuron 2000 g a.i./ha. The text has this: (§1) In early-mid spring season, corn seeds (hybrid ‘Pioneer 3041’) were planted 5 cm deep and sugarcane nodes (variety RB-72.454) were planted 10 cm deep in separate plots in a clay soil having 2.6% organic matter and a pH of 5.6. Plots were 24 m long by 1.5 m wide with rows spaced 80 cm (corn) or 140 cm (sugarcane) apart. Corn seeds were spaced 15 cm apart and sugarcane nodes were spaced 10 cm apart within the rows. At the same time, weed seeds were broadcast over the surface of separate plots without a crop, one weed species per plot. The weed plots were rotary tilled to incorporate the weed seeds to a variety of depths. The field was managed using conventional tillage practices.

Data set [4] relates to Italian cocklebur (XANSI). As to the kind of experiment: Test 12 field trial, preemergence. As to conditions: Cpd 2 or Cpd 1 62 g a.i./ha, Diuron 2000 g a.i./ha. More on the design: scale not given here. The data set is classed as in vivo, Xanthium strumarium ssp. italicum.
From the text: as §1

The subject of a further data set is winter barley (HORVW). As to the kind of experiment: Test 20 growth chamber, postemergence. The data set is classed as in vivo, Hordeum vulgare. As to conditions: 25 DAA. The protocol:
A test was conducted to evaluate the effects on winter barley (HORVW, Hordeum vulgare L.) and winter wheat (TRZAW, Triticum aestivum L.) of mixtures of Compound 2 with the commercial herbicides (2,4-dichlorophenoxy)acetic acid (2,4-D) and (4-chloro-2-methylphenoxy)acetic acid (MCPA), auxin mimics. […] Plants were treated postemergence at the 2-leaf growth stage, and each treatment was replicated a total of four times (three times in the loam/sand blend and one time in RediEarth). […] Plants were watered as needed. […] Results are the means of the four replicates.

The test system of the next data set is wild mustard (SINAR). The data set can be described thus: Test 21 growth chamber, postemergence. The format is in vivo, Sinapis arvensis. As to conditions: 19 DAA. The protocol: A test was conducted to evaluate the effects on winter barley (HORVW, Hordeum vulgare L.), winter wheat (TRZAW, Triticum aestivum L.), and several weed species, of mixtures of Compound 2 with the commercial herbicide (2,4-dichlorophenoxy)acetic acid (2,4-D), an auxin mimic. […] Plants were treated postemergence at the 2-4 leaf growth stage, and each treatment was replicated one time. […] Plants were watered as needed. […] Results are from single replicates.

A further data set deals with redroot pigweed (AMARE). As to the kind of experiment: Test 23 growth chamber, postemergence. The data set is classed as in vivo, Amaranthus retroflexus. As to conditions: 21 DAA. The protocol: (§2) A test was conducted to evaluate the effects on winter barley (HORVW, Hordeum vulgare L.), winter wheat (TRZAW, Triticum aestivum L.), and several weed species of mixtures of Compound 2 with the commercial herbicides (2,4-dichlorophenoxy)acetic acid (2,4-D) and (4-chloro-2-methylphenoxy)acetic acid (MCPA), auxin mimics. […] Plants were treated postemergence at the 2-4 leaf growth stage, and each treatment was replicated three times. […] Plants were watered as needed. […] Results are means of the three replicates.

A further data set has as its system wild buckwheat (POLCO). As to the kind of experiment: Test 23 growth chamber, postemergence. The data set is classed as in vivo, Polygonum convolvulus. As to conditions: 21 DAA. The protocol: as §2
Setting [5] is: g a.i./ha: Cpd 2 25, Atrazine 250.
[6] abbreviates: g a.i./ha: Cpd 2 50, Atrazine 500.
Setting [7] is: g a.i./ha: Cpd 2 75, Atrazine 750.
Where [8] appears, read: g a.i./ha: Cpd 2 100, Atrazine 1000.
The mark [9] stands for this setting: g a.i./ha: Cpd 2 150, Atrazine 1500.
The mark [10] stands for this setting: 2,4-D or MCPA alone 250 g a.i./ha.

Consider `COC(=O)c1nc(C2CC2)nc(N)c1Cl` [Compound 2, methyl 6-amino-5-chloro-2-cyclopropyl-4-pyrimidinecarboxylate], for which the “CHEAL Obs” value in data set [1] (setting [5]) was 90; in [1] (setting [6]), 100; in [1] (setting [7]), 100; in data set [1] (setting [8]) it was 100; in data set [1] (setting [9]), 100. Also, the “LAMPU Obs” value in the data set with red deadnettle (LAMPU) (30 DAA) amounted to 87%; in the data set with red deadnettle (LAMPU) (42 DAA), 35%; in the data set on red deadnettle (LAMPU) (46 DAA), 100%. In addition, the “POLPY Obs” value is listed as 77% in data set [2] (14 DAA, 125 g a.i./ha); 95% in data set [2] (14 DAA, 250 g a.i./ha); 97% in data set [2] (14 DAA, 500 g a.i./ha); 70% in data set [2] (28 DAA, 125 g a.i./ha); 93% in data set [2] (28 DAA, 250 g a.i./ha); 97% in [2] (28 DAA, 500 g a.i./ha). The “POLPY Obs” value in data set [2] (62 DAA, 125 g a.i./ha) was determined as 40%; in [2] (62 DAA, 500 g a.i./ha), 100%. Further, the “RANAB Obs” value in data set [3] (7 DAA) is on record as 45%; in data set [3] (14 DAA), 40%; in [3] (23 DAA) it was 60%; in [3] (30 DAA) it was 65%. In addition, the “SIDRH Obs” value in the data set on arrowleaf sida (SIDRH) (15 DAA) amounted to 40; with arrowleaf sida (SIDRH) (29 DAA), 90; in the data set on arrowleaf sida (SIDRH) (48 DAA), 70; in the data set on arrowleaf sida (SIDRH) (61 DAA), 60. In addition, the “XANSI Obs” value is on record as 0 in data set [4] (15 DAA), 70 in data set [4] (29 DAA), 60 in [4] (48 DAA) and 40 in data set [4] (61 DAA). Also, the “Postemergence HORVW Obs” value with winter barley (HORVW) (Cpd 2 alone 4 g a.i./ha) is given as 26; with winter barley (HORVW) (Cpd 2 alone 8 g a.i./ha), 33; with winter barley (HORVW) (Cpd 2 alone 16 g a.i./ha) it was 44. For the same molecule, the “Postemergence SINAR Obs” value in the data set with wild mustard (SINAR) (Cpd 2 alone 16 g a.i./ha) stood at 65. For the same molecule, the “Postemergence AMARE Obs” value is 43 with redroot pigweed (AMARE) (Cpd 2 alone 4 g a.i./ha), 62 in the data set with redroot pigweed (AMARE) (Cpd 2 alone 8 g a.i./ha) and 68 in the data set with redroot pigweed (AMARE) (Cpd 2 alone 16 g a.i./ha). Moreover, the “Postemergence POLCO Obs” value with wild buckwheat (POLCO) (Cpd 2 alone 4 g a.i./ha) is reported as 48; in the data set on wild buckwheat (POLCO) (Cpd 2 alone 8 g a.i./ha), 53; in the data set with wild buckwheat (POLCO) (Cpd 2 alone 16 g a.i./ha), 55.
As for `O=C(O)CNCP(=O)(O)O` [Glyphosate], the “LAMPU Obs” value with red deadnettle (LAMPU) (30 DAA) is 70%; in the data set on red deadnettle (LAMPU) (42 DAA) it was 52%; in the data set with red deadnettle (LAMPU) (46 DAA), 97%. The “RANAB Obs” value came out at 50% in data set [3] (7 DAA), 80% in data set [3] (14 DAA), 95% in [3] (23 DAA) and 100% in data set [3] (30 DAA).
For the molecule `CCc1cccc(C)c1N(C(=O)CCl)[C@@H](C)COC` [S-Metolachlor, S-metolachlor, reference compound], the “POLPY Obs” value came out at 60% in data set [2] (14 DAA, 1000 g a.i./ha); 45% in data set [2] (28 DAA, 1000 g a.i./ha); 10% in data set [2] (62 DAA, 1000 g a.i./ha).
As for `CCNc1nc(Cl)nc(NC(C)C)n1` [Atrazine, atrazine, reference compound], the “CHEAL Obs” value in data set [1] (setting [5]), in data set [1] (setting [6]), in data set [1] (setting [7]), in data set [1] (setting [8]) and in data set [1] (setting [9]) was 100 throughout.
For the molecule `O=C(O)COc1ccc(Cl)cc1Cl` [2,4-D, (2,4-dichlorophenoxy)acetic acid], in the data set with winter barley (HORVW) (setting [10]), the “Postemergence HORVW Obs” value stood at 26. Also, the results for the “Postemergence SINAR Obs” value in the data set on wild mustard (SINAR) (2,4-D alone 125 g a.i./ha) and in the data set on wild mustard (SINAR) (2,4-D alone 250 g a.i./ha) were 85 and 65, respectively. Further, in the data set on redroot pigweed (AMARE) (setting [10]), the “Postemergence AMARE Obs” value stood at 67. The “Postemergence POLCO Obs” value in the data set with wild buckwheat (POLCO) (setting [10]) amounted to 58.
As to `Nc1nc(C2CC2)nc(C(=O)O)c1Cl` [Compound 1, 6-amino-5-chloro-2-cyclopropyl-4-pyrimidinecarboxylic acid], the “SIDRH Obs” value in the data set with arrowleaf sida (SIDRH) (15 DAA) is 60; in the data set on arrowleaf sida (SIDRH) (29 DAA), 95; in the data set with arrowleaf sida (SIDRH) (48 DAA), 100; in the data set on arrowleaf sida (SIDRH) (61 DAA), 95. In addition, the “XANSI Obs” value in [4] (15 DAA) is on record as 40; in data set [4] (29 DAA), 90; in [4] (48 DAA) it was 90; in data set [4] (61 DAA), 60.
